Source: ChEMBL document CHEMBL5150065, “Design, synthesis, and bioevaluation of imidazo [1,2-a] pyrazine derivatives as tubulin polymerization inhibitors with potent anticancer activities” (Bioorg Med Chem, 2022)

Tests used:
Format in all cases: functional, cell-based
HepG2 = experiment: Antiproliferative activity against human HepG2 cells assessed as inhibition of cell growth incubated for 48 hrs by MTT assay; conditions: HepG2, 48 h
HCT-116 = experiment: Antiproliferative activity against human HCT-116 cells assessed as inhibition of cell growth incubated for 48 hrs by MTT assay; conditions: HCT-116, 48 h
A549 = experiment: Antiproliferative activity against human A549 cells assessed as inhibition of cell growth incubated for 48 hrs by MTT assay; conditions: A549, 48 h
MDA-MB-231 = experiment: Antiproliferative activity against human MDA-MB-231 cells assessed as inhibition of cell growth incubated for 48 hrs by MTT assay; conditions: MDA-MB-231, 48 h

## COc1cc(-c2nccn3cc(-c4ccc(C)cc4)nc23)cc(OC)c1OC
HepG2
  IC50: 0.16 µM
HCT-116
  IC50: 0.074 µM
A549
  IC50: 0.135 µM
MDA-MB-231
  IC50: 0.053 µM

## COc1cc(C(=O)c2cn3ccnc(-c4ccc(C)cc4)c3n2)cc(OC)c1OC
HepG2
  IC50: > 10 µM
HCT-116
  IC50: > 10 µM
A549
  IC50: 7.9 µM
MDA-MB-231
  IC50: > 10 µM

## COc1cc(C(=O)c2cn3ccc(C)c([N+](=O)[O-])c3n2)cc(OC)c1OC
HepG2
  IC50: > 10 µM
HCT-116
  IC50: > 10 µM
A549
  IC50: > 10 µM
MDA-MB-231
  IC50: > 10 µM

## COc1cc(C(=O)c2cn3ccc(F)cc3n2)cc(OC)c1OC
HepG2
  IC50: > 10 µM
HCT-116
  IC50: > 10 µM
A549
  IC50: > 10 µM
MDA-MB-231
  IC50: > 10 µM

## COc1cc(C(=O)c2cn3ccc(C(F)(F)F)cc3n2)cc(OC)c1OC
HepG2
  IC50: > 10 µM
HCT-116
  IC50: > 10 µM
A549
  IC50: > 10 µM
MDA-MB-231
  IC50: > 10 µM

## COc1ccc(-c2cn3ccnc(-c4cc(OC)c(OC)c(OC)c4)c3n2)cc1N
HepG2
  IC50: 0.123 µM
HCT-116
  IC50: 0.122 µM
A549
  IC50: 0.309 µM
MDA-MB-231
  IC50: 0.111 µM

## COc1cc(-c2nccn3cc(-c4ccc(C(F)(F)F)cc4)nc23)cc(OC)c1OC
HepG2
  IC50: 2.63 µM
HCT-116
  IC50: > 10 µM
A549
  IC50: > 10 µM
MDA-MB-231
  IC50: > 10 µM

## COc1ccc(-c2cn3ccnc(-c4cc(OC)c(OC)c(OC)c4)c3n2)cc1[N+](=O)[O-]
HepG2
  IC50: > 10 µM
HCT-116
  IC50: > 10 µM
A549
  IC50: > 10 µM
MDA-MB-231
  IC50: > 10 µM

## COc1cc(C(=O)c2cn3ccc(C)cc3n2)cc(OC)c1OC
HepG2
  IC50: 6.7 µM
HCT-116
  IC50: 3.06 µM
A549
  IC50: > 10 µM
MDA-MB-231
  IC50: 9.28 µM

## COc1cc(C(=O)c2cn3ccnc(-c4ccccc4)c3n2)cc(OC)c1OC
HepG2
  IC50: > 10 µM
HCT-116
  IC50: 1.94 µM
A549
  IC50: 3.94 µM
MDA-MB-231
  IC50: > 10 µM

## COc1cc(-c2nccn3cc(-c4ccc(Cl)cc4)nc23)cc(OC)c1OC
HepG2
  IC50: 0.475 µM
HCT-116
  IC50: 0.351 µM
A549
  IC50: 7.29 µM
MDA-MB-231
  IC50: 2.09 µM

## COc1ccc(-c2cn3ccnc(-c4cc(OC)c(OC)c(OC)c4)c3n2)cc1
HepG2
  IC50: 0.205 µM
HCT-116
  IC50: 0.191 µM
A549
  IC50: 0.457 µM
MDA-MB-231
  IC50: 0.105 µM

## COc1cc(-c2nccn3cc(-c4ccc(O)cc4)nc23)cc(OC)c1OC
HepG2
  IC50: 0.823 µM
HCT-116
  IC50: 0.901 µM
A549
  IC50: > 10 µM
MDA-MB-231
  IC50: > 10 µM
